Data reported in PMC5764437, “Discovery of novel, orally bioavailable, antileishmanial compounds using phenotypic screening” (PLoS Neglected Tropical Diseases, 2017).
Like-named read-outs stand apart in the source and are kept apart here.

What was measured:
[1] = tested on: bloodstream form Lister 427 T. brucei; test: Growth inhibition of T. brucei bloodstream forms (SYBR Green I); assay type: cell-based; settings: Trypanosoma brucei, bloodstream form; mean ± standard deviation, n = 2; read-out: T. brucei EC50
Experimental: L. mexicana (MNYZ/BZ/62/M379) or L. donovani (LdBob strain) parasites expressing the Renilla luciferase gene from a rRNA gene locus were used to infect J774A.1 macrophages. Growth of intracellular amastigotes was measured using a luminescence assay, as detailed previously. The growth inhibitor activities of compounds were tested against bloodstream form Lister 427 T. brucei in 96-well plates containing 1 X 10^5 parasites per well in 0.2 ml HMI-11 medium (Gibco/Thermo Fisher). Compounds (2 μl volumes in DMSO) were added to the parasites using serial 3-fold dilutions to cover a range of concentrations from about 10 μM to 1 nM. After 48 h incubation at 37°C under a humidified 5% CO2 atmosphere, 10 μl of 10% Triton X-100 and 100 X stock SYBR Green I (Sigma-Aldrich) in PBS was added and florescence measured (excitation 497 nm; emission 520 nm) after 1 h incubation in the dark using a Spectra Max Gemini XPS fluorimeter (Molecular Devices). Data were log transformed and EC50 values were determined using GraphPad Prism 6 (GraphPad Software). In the absence of growth inhibiting compounds, the parasites grew from an initial density of 5 X 10^5 cells/mL to ~3 X 10^6 cells/mL.

[2] = tested on: bloodstream form Lister 427 T. brucei; design: method as in PMID 23484493; settings: bloodstream form of Trypanosoma brucei; read-out: T. brucei bloodstream form EC50 (previously reported); cited from earlier work

Compound	EC50 [1]	EC50 [2]
COc1ccc(-c2c(C(F)(F)F)oc3c(CN4CCN(C)CC4)c(O)ccc3c2=O)cc1OC [Compound 4]	11 ± 1 µM	–
Cc1ccc(-c2nc3ccccc3s2)cc1NC(=O)c1cc([N+](=O)[O-])c(N2CCN(C)CC2)cc1Cl [Compound 5]	–	0.027 µM
